From patent US20250381307A1, “RETRO-AAV AND USE IN TREATING NEURODEGENERATIVE DISEASES” (priority 2023, published 2025)

Key:
hM3Dq [1] = target: T1, hM3Dq (Homo sapiens, UniProt P20309, A239G/Y149C); assay: Slice whole-cell recordings of hM3Dq-transduced MSNs; assay type: cell-based, mice; design: 2A-EYFP (C); host or cells: AAV8R12-transduced EYFP+ striatal MSNs in acute mouse brain slices; conditions: AAV8R12-G88P3-HA-hM3Dq-2A-EYFP; CNO 10 μM; basal firing rate and resting membrane potential unaffected
Excerpt: Mice from different groups were anesthetized with […] isoflurane, and then decapitated. The brain was quickly extracted and placed in ice-cold N-methyl-D-glucamine (NMDG) cutting solution containing (in mM): 92 NMDG, 2.5 KCl, 25 NaHCO3, 1.25 NaH2PO4, 4.5 D-Glucose, 20 HEPES, 5 L-ascorbic acid, 3 Na-pyruvate, 2 Thiourea, 10 MgSO4, 0.5 CaCl2). The pH was adjusted to 7.2±0.1 using HCl and the osmolarity was adjusted to 305±5 mosmol/L using NMDG. The solution was bubbled with 95% O2/5% CO2 prior to use. Coronal striatum slices were cut in 250-[…]m thickness with a vibratome slicer (Leica, VT1200 S), and then incubated in artificial cerebrospinal fluid (aCSF) saturated with 95% O2/5% CO2 for at least 45 min at 37° C. before recording. The aCSF contains (in mM) 125 NaCl, 1.25 KCl, 25 NaHCO3, 1.25 KH2PO4, 25 D-Glucose, 2 CaCl2) and 1 MgCl2, supplemented with 2 mM Na-pyruvate, 3 mM Myo-inositol and 0.4 mM L-ascorbic acid.
The acute striatum slice was transferred to the recording chamber with a constant perfusion of oxygenized aCSF at the rate of 3 ml/min. Neurons were visualized using an upright microscope (Olympus, BX-51) with a 40×water immersion objective at room temperature (˜25° C.). […] Neurons were quickly visualized under fluorescence microscope and then patch clamp were achieved under infrared light illumination and CCD camera. […]

hM3Dq [2] = target: T1, hM3Dq; assay: In vivo electrophysiological recording in caudate, hM3Dq macaques, CNO infusion into dorsomedial caudate; design: host or cells: AAV8R12-transduced neurons (striatal D1-MSNs, some SNr neurons) of mice and macaques
Method: Electrophysiological recording was performed through a recording chamber while the monkey was anesthetized. Neural responses were recorded by a 16-channel linear probe (Plexon Inc, Uprobe) driven by a mechanical microdrive (Alpha Omega, FlexMT). Signals were passed through a head stage (Plexon Inc, HST/16V-G20 LN) and then split and filtered between 300 Hz and 5 kHz to identify spiking activity with an amplifier system (Plexon Inc, OmniPlex). Detected spikes were then sorted by commercially available software (Plexon Inc, Offline Sorter) for further analysis. To quantify the effect of CNO/DCZ injection, neural activity was recorded for 60 minutes following CNO/DCZ injection. The response time-course for each channel was obtained by counting the spikes within every 10-minute window and then normalizing to the maximal.
To determine the effect of CNO/DCZ injection on the direction of signal change, we performed Pearson correlation between neural responses and time using the ‘corr’ function in Matlab, which generates the correlation coefficient ‘r’ and significant level ‘p’. A neuron was considered to have “Increased” activity when r>0 and p<0.05; and considered to have “Decreased” activity when r<0 and p<0.05. Otherwise, neurons were considered to be “Unchanged” in their neural activities. The responses of all increased neurons were then averaged after being normalized by the maximal response (Crowe et al., 2014; Dai and Wang, 2018; Hirokawa et al., 2019) following CNO/DCZ injection, and then plotted as a function of time to generate the normalized population response.

T1 sequence (P20309 whole entry Y149C/A239G): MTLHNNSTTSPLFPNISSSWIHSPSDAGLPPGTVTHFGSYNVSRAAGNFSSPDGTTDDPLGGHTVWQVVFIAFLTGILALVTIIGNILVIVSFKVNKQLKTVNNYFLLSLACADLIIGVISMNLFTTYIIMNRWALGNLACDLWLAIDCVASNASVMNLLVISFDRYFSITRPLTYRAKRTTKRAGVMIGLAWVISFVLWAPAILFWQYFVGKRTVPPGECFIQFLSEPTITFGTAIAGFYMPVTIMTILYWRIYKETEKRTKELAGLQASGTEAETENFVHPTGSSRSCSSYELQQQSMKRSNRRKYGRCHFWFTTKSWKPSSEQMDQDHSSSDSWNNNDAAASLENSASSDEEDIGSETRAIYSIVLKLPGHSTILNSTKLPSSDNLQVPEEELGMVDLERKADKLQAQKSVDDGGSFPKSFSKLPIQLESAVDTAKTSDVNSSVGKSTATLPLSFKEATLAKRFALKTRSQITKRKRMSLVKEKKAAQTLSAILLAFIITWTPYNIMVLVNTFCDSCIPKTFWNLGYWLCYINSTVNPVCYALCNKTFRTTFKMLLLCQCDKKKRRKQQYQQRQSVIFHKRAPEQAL

C[N+]1([O-])CCN(C2=Nc3cc(Cl)ccc3Nc3ccccc32)CC1 [CNO, clozapine N-oxide]
excitability of transduced MSNs (hM3Dq [1]): augmentation of excitability | caudate cells activated (FIG. 12L) (hM3Dq [2]; 34 total cells, saline 18.8%): 67.6% | caudate cells inactivated (FIG. 12L) (hM3Dq [2]; 34 total cells, saline 40.6%): 2.9% | caudate cells unchanged (FIG. 12L) (hM3Dq [2]; 34 total cells, saline 40.6%): 29.4% | caudate cells activated (FIG. 12C) (hM3Dq [2]; monkey CM045, 34 cells): 70.6% | caudate cells inactivated (FIG. 12C) (hM3Dq [2]; monkey CM045, 34 cells): 8.8% | caudate cells unchanged (FIG. 12C) (hM3Dq [2]; monkey CM045, 34 cells): 20.6%
